Laboratory results published in patent US11752132B2, “Materials and methods for improving gastrointestinal function” (University of Florida Research Foundation, Incorporated, priority 2010, dated 2023).
Several values for one entry are separate records, joined by “and”; a condition that tells them apart may be missing. Equal entries are not always repeated.

Legend:
[1] = system: small intestine mucosa; assay: Ussing chamber isotope flux studies, unidirectional and net flux of Na^+ and Cl^−; type: in vitro ADME, mice; design: key to Na Flux Jms / Na Flux Jsm / Na Flux Jnet: fluxes in μmol·h^−1·cm^−2
Protocol: (§1) Following exsanguinations, jejunal segment was obtained by excluding the distal 12 cm of small intestine adjacent to the caecum. This segment was washed and flushed in ice-cold Ringer's solution before the mucosa was stripped from the underlying muscular layers (Zhang, Ameen et al. 2007). The mucosa was mounted between the 2 halves of an Ussing-type Lucite chamber with an area of 0.30 cm^2 (P2304, Physiologic instruments, San Diego, Calif. 92128 USA), and electrical parameters were recorded using a voltage/current clamp device (VCC MC-8, Physiologic instruments, San Diego, Calif. 92128 USA) (Vidyasagar et al. 2005; Vidyasagar et al. 2004; Zhang et al. 2007; Vidyasagar and Ramakrishna 2002).
Irradiation decreases Jms in a dose-dependent manner, and results in decreased net Na^+ absorption (JNetNa). Jsm far exceeds Jms at doses 7 and 9 Gy, causing net secretion. In addition, mice stool samples became loose or poorly formed at high dose irradiation, further evidencing decreased absorption and increased secretion of electrolytes. […] Decrease in Cl^− absorption was due to decrease in JmsCl^−.
In this Example, isotope (^22Na and ^36Cl) substitution studies are performed to determine the basal Na^+ and Cl^− movement. Briefly, ^22Na and ^36Cl are added either to the mucosal or to the serosal side. 0.5 ml samples are collected from the cold side at the end of every 30 minutes. Unidirectional fluxes are calculated using standard formula, and expressed as μmol·h^−1·cm^−2. Net flux (JNet) is calculated as the difference between Jms and Jsm fluxes across tissue pairs. Experiments are performed under short-circuit conditions.

[2] = system: jejunum (HCO3^− secretion); assay: pH stat measurement of HCO3^− secretion in stripped jejunal sheets; type: cell-based, mice
Protocol: A Bi-burette TIM 856 (Radiometer Analytical SAS, Villeurbanne, France) was used to measure HCO3^− secretion in stripped jejunal sheets (Vidyasagar et al. 2005; Vidyasagar et al. 2004; Zhang et al. 2007). Automated pumps maintained a constant pH for luminal solution through the addition of 0.01 μl of 0.025 M sulfuric acid (H2SO4). Standard-to-stat pH calibration was established by adding a known quantity of H2SO4 to a weak buffering solution, which contains an increasing concentration of HCO3^− to produce a linear titration curve.
Jejunal tissues were exposed to a buffered solution on the bath side (serosal side), while the luminal side was exposed to an HCO3^− free, low-buffered solution (0.1-mM HEPES (4-(2-hydroxyethyl)-1-piperazineethanesulfonic acid) buffer, pH 7.4). The HCO3^− secretion was equivalent to the amount of acid added to the luminal solution to maintain the pH at 7.4 (or the stat pH). All experiments were performed under voltage-clamp conditions. HCO3^−-free solution was gassed with 100% O2 and HCO3^−-containing solution was gassed with 95% O2 and 5% CO2. The HCO3^− secretion was expressed as μeq h^−1·cm^−2 (Vidyasagar et al. 2005; Vidyasagar et al. 2004; Zhang et al. 2007).
After the tissue was mounted, HCO3^− secretions were initially present in the absence of bath HCO3^−, but rapidly fell towards 0 within 20-30 minutes. If bath HCO3^− was not present during the titration, the HCO3^− secretion remained close to 0. […] When inhibitors were added to the mucosal solution, the pH was adjusted and allowed to equilibrate for 30 minutes, until a steady rate of HCO3^− secretion was observed. When the inhibitor was added to the bath side, the tissue was also equilibrated for 30 minutes to achieve a steady rate of HCO3^− secretion (see Table 3).
All experiments were performed during the initial 1-hour steady-state period. 1 tissue from each animal was used for each experiment; only 1 experimental condition was studied with each tissue sample. All experiments were repeated for at least 4 times.

[3] = system: jejunal mucosa (net anion secretion); assay: Ussing chamber transepithelial short circuit current (Isc) with transport blockers/forskolin; type: cell-based, mice
Description: To study active HCO3^− secretion, 8-week-old, non-irradiated and irradiated, male BALB/c mice were obtained from the National Cancer Institute. Mice were randomly divided into groups, and abdomens were irradiated according to the gastrointestinal acute radiation syndrome (GI ARS) model with a Shepherd Mark-I, using a ^137Cs source delivering γ-irradiation at 1.84 Gy/min. Radiation was given as a single fraction. The GI ARS model will achieve maximum radiation damage to intestinal tissues, and mimics intestinal injury during radiation therapy of pelvic or abdominal tumors.
Changes in short circuit current (Isc), both as a function of time following radiation and with increasing doses of radiation, were examined to determine the earliest time and the minimum radiation dose required to produce significant changes in Isc. These studies were approved by the University of Rochester Animal Care and Use Committee.
as §1
To determine the contribution of NKCC1 to basal Isc, 100 μM bumetanide (Sigma-Aldrich Co., USA) was added to the bath solution.
To determine whether the bumetanide-insensitive portion of Isc occurs via an apical membrane anion channel, a non-specific anion channel blocker, 5-nitro-2-(3-phenylpropylamino)-benzoic acid (Sigma-Aldrich Co., USA) (10 μM NPPB), and a specific cystic fibrosis transmembrane conductance regulator (CFTR) blocker (100 μM glibenclamide, Sigma-Aldrich Co., USA) were applied.

[4] = system: mice with injury to small intestine mucosa; assay: Oral administration of candidate nutrients in radiation, chemotherapy and Crohn's disease models; settings: for survival: oral feeding of an irradiated subject; for effect of oral administration on small intestine healing, paracellular conductance, electrolyte absorption, survival: radiation, chemotherapy and Crohn's disease models, each amino acid
Protocol: In a Crohn's disease model, mice are injected with anti-CD3 mAb (acute inflammatory model to mimic conditions of Crohn's disease).
The alterations of absorptive capacity of nutrients are determined using disease models with injury to small intestine mucosa, i.e., the radiation model, chemotherapy model, and the Crohn's disease model. Specifically, a candidate nutrient is orally administered to control mice and mice that received irradiation, chemotherapy, and anti-CD3 mAb, respectively. In addition, compositions containing various combinations of the candidate nutrients are orally administered.
To determine the absorptive capacity of each nutrient, bioelectric measurements are performed using an Ussing chamber. The measurements include: a) the sodium coupled-amino acid current (ISC) and changes in conductance, b) changes in saturation kinetics of each nutrient and changes in the ISC following the administration of each nutrient; and c) the electrolyte absorption studies using isotope flux studies in the presence and absence of the specific candidate nutrient.

## Cl [Cl^−]
[1]; IR 0 Gy
  Cl Flux Jms: 17.3 ± 1.1
  Cl Flux Jnet: 10.2 ± 0.8
  Cl Flux Jsm: 7.1 ± 0.6
[1]; IR 1 Gy
  Cl Flux Jms: 12.8 ± 0.9
  Cl Flux Jnet: 5.2 ± 0.9
  Cl Flux Jsm: 7.6 ± 1.3
[1]; IR 3 Gy
  Cl Flux Jms: 16.8 ± 0.7
  Cl Flux Jnet: 7.5 ± 0.8
  Cl Flux Jsm: 9.3 ± 0.8
[1]; IR 5 Gy
  Cl Flux Jms: 14.2 ± 1.2
  Cl Flux Jnet: 3.9 ± 0.7
  Cl Flux Jsm: 10.3 ± 0.9
[1]; IR 7 Gy
  Cl Flux Jms: 7.1 ± 0.5
  Cl Flux Jnet: 0.3 ± 0.2
  Cl Flux Jsm: 6.9 ± 0.3
[1]; IR 9 Gy
  Cl Flux Jms: −9.2 ± 0.8
  Cl Flux Jnet: −9.3 ± 0.9
  Cl Flux Jsm: 0.1 ± 0.1

## CS(=O)(=O)c1cc(C(=O)NC(=N)N)ccc1N1CCCCC1.Cl [HOE694, 3-methylsulphonyl-4-piperidinobenzoyl, guanidine hydrochloride]
[2]; 1 mM HOE694 on bath side, 8.4±0.4 without
  cAMP-stimulated HCO3^− secretion after HOE694: 7.2±0.9 μeq·h^−1·cm^−2

## O=C(O)c1cc([N+](=O)[O-])ccc1NCCCc1ccccc1 [NPPB, 5-nitro-2-(3-phenylpropylamino)-benzoic acid]
[3]; 0-Gy mice, 10 μM NPPB, 100 μM glibenclamide
  bumetanide-insensitive Isc after mucosal addition of blocker: 0.1±0.01 μeq·h^−1·cm^−2
[2]; 0 Gy + forskolin, blocker on luminal side (100 μM glibenclamide; NPPB)
  forskolin-stimulated HCO3^− secretion after blocker: 0.2±0.01 μeq·h^−1·cm^−2
[2]; 3 Gy, blocker in lumen solution / mucosal addition (100 μM DIDS or glibenclamide; NPPB)
  HCO3^− secretion: 0.2±0.01 μeq·h^−1·cm^−2

## [Na+] [Na^+]
[1]; IR 0 Gy
  Na Flux Jms: 16.4 ± 0.9
  Na Flux Jnet: 9.8 ± 0.8
  Na Flux Jsm: 7.1 ± 0.8
[1]; IR 1 Gy
  Na Flux Jms: 15.6 ± 1
  Na Flux Jnet: 8.6 ± 0.9
  Na Flux Jsm: 7.1 ± 1.1
[1]; IR 3 Gy
  Na Flux Jms: 6.8 ± 0.7
  Na Flux Jnet: 2.6 ± 0.5
  Na Flux Jsm: 3.5 ± 0.3
[1]; IR 5 Gy
  Na Flux Jms: 5.2 ± 0.6
  Na Flux Jnet: 0.4 ± 0.2
  Na Flux Jsm: 4.8 ± 0.4
[1]; IR 7 Gy
  Na Flux Jms: 4.8 ± 0.4
  Na Flux Jnet: −0.6 ± 0.3
  Na Flux Jsm: 5.4 ± 0.4
[1]; IR 9 Gy
  Na Flux Jms: 4.3 ± 0.7
  Na Flux Jnet: −0.4 ± 0.2
  Na Flux Jsm: 4.7 ± 0.6

## NC(=O)C[C@H](N)C(=O)O [asparagine]
[4]
  survival: prolongs survival
  effect of oral administration on small intestine healing, paracellular conductance, electrolyte absorption, survival: improve small intestine healing, reduces paracellular conductance (thereby improving small intestine mucosal barrier mechanism), increases absorption of electrolytes, and/or improves survival in animals

## N[C@@H](CC(=O)O)C(=O)O [aspartic acid]
[4]
  survival: prolongs survival
  effect of oral administration on small intestine healing, paracellular conductance, electrolyte absorption, survival: improve small intestine healing, reduces paracellular conductance (thereby improving small intestine mucosal barrier mechanism), increases absorption of electrolytes, and/or improves survival in animals

## C=C[C@@]1(C)CC(=O)[C@]2(O)[C@@]3(C)[C@@H](O)CCC(C)(C)[C@@H]3[C@H](O)[C@H](OC(C)=O)[C@@]2(C)O1 [forskolin]
[3]; 0 Gy
  forskolin-stimulated Isc: 6.9±0.6 μeq·h^−1·cm^−2
  forskolin-stimulated Isc in Cl^−-free solution: 1.7±0.2 μeq·h^−1·cm^−2
[3]; 3-Gy irradiated mice
  forskolin-stimulated Isc in Cl^−-free solution: 0.3±0.1 μeq·h^−1·cm^−2
[3]; 3 Gy
  forskolin-stimulated Isc: 7.3±0.5 μeq·h^−1·cm^−2
[2]; 0 Gy + forskolin, Cl^− containing lumen solution
  HCO3^− secretion: 8.4±0.4 μeq·h^−1·cm^−2
[2]; 0 Gy + forskolin, Cl^−-free lumen solution
  HCO3^− secretion: 8.7±0.4 μeq·h^−1·cm^−2 and 8.7 ± 0.4^ μeq·h^−1·cm^−2
[2]; 3 Gy + forskolin, Cl^− containing lumen solution
  HCO3^− secretion: 0.6 ± 0.2 μeq·h^−1·cm^−2
[2]; 3 Gy + forskolin, Cl^− containing lumen solution, listed as Forskolin
  HCO3^− secretion: 0.6±0.2 μeq·h^−1·cm^−2
[2]; 3 Gy + forskolin, Cl^−-free lumen solution
  HCO3^− secretion: 0.9 ± 0.2^ μeq·h^−1·cm^−2
[2]; non-irradiated mice, bath Na^+ replaced with NMDG
  forskolin-stimulated HCO3^− secretion: 0.3±0.01 μeq·h^−1·cm^−2

## NCC(=O)O [glycine]
[4]
  survival: prolongs survival
  effect of oral administration on small intestine healing, paracellular conductance, electrolyte absorption, survival: improve small intestine healing, reduces paracellular conductance (thereby improving small intestine mucosal barrier mechanism), increases absorption of electrolytes, and/or improves survival in animals

## CC[C@H](C)[C@H](N)C(=O)O [isoleucine]
[4]
  survival: prolongs survival
  effect of oral administration on small intestine healing, paracellular conductance, electrolyte absorption, survival: improve small intestine healing, reduces paracellular conductance (thereby improving small intestine mucosal barrier mechanism), increases absorption of electrolytes, and/or improves survival in animals

## N[C@@H](CO)C(=O)O [serine]
[4]
  survival: prolongs survival
  effect of oral administration on small intestine healing, paracellular conductance, electrolyte absorption, survival: improve small intestine healing, reduces paracellular conductance (thereby improving small intestine mucosal barrier mechanism), increases absorption of electrolytes, and/or improves survival in animals

## C[C@@H](O)[C@H](N)C(=O)O [threonine]
[4]
  survival: prolongs survival
  effect of oral administration on small intestine healing, paracellular conductance, electrolyte absorption, survival: improve small intestine healing, reduces paracellular conductance (thereby improving small intestine mucosal barrier mechanism), increases absorption of electrolytes, and/or improves survival in animals

## N[C@@H](Cc1c[nH]c2ccccc12)C(=O)O [tryptophan]
[4]
  survival: prolongs survival
  effect of oral administration on small intestine healing, paracellular conductance, electrolyte absorption, survival: improve small intestine healing, reduces paracellular conductance (thereby improving small intestine mucosal barrier mechanism), increases absorption of electrolytes, and/or improves survival in animals

## N[C@@H](Cc1ccc(O)cc1)C(=O)O [tyrosine]
[4]
  survival: prolongs survival
  effect of oral administration on small intestine healing, paracellular conductance, electrolyte absorption, survival: improve small intestine healing, reduces paracellular conductance (thereby improving small intestine mucosal barrier mechanism), increases absorption of electrolytes, and/or improves survival in animals

## CC(C)[C@H](N)C(=O)O [valine]
[4]
  survival: prolongs survival
  effect of oral administration on small intestine healing, paracellular conductance, electrolyte absorption, survival: improve small intestine healing, reduces paracellular conductance (thereby improving small intestine mucosal barrier mechanism), increases absorption of electrolytes, and/or improves survival in animals
